# Values quoted from earlier work in US6495173B1, “Compositions and methods for reducing or controlling blood cholesterol, lipoproteins, triglycerides and atherosclerosis” (priority 2000, dated 2002).
# How the values were obtained:
# [1] = supplement users versus non-users
# [2] = rats
# [3] = large doses (3 to 6 g/day)
# [4] = mean dose of 2,250 mg/day
# [5] = in vivo
# [6] = human, in vivo
# [7] = 100 mg per day for 30 days
# [8] = 75 mg to 600 mg/day, eight years
# [9] = 500 mcg BID, after 2 and 4 months
molecule,measurement,setting,value
vitamin E,absolute risk reduction,[1],"3.4 women per 10,000 woman-years"
same,reduction in relative risk for non-fatal myocardial infarction and death from cardiovascular disease,"[1]; average 8 years follow-up, adjusted",31%
"CC(C)(C)c1cc(O)ccc1O [TBHQ, tert-butylhydroquinone]",blood cholesterol and triglycerides,[2],reduce
chromium picolinate,triglyceride level,supplementation for 2 months (vs. 161),133 mg/dL
same,reduction in triglyceride levels,"supplementation for 2 months, P<0.05",17.4%
O=C(O)c1cccnc1 [Nicotinic acid],increase in HDL,[3],≤ 30 mg/dL
same,increase in levels of HDL-cholesterol,[4],35%
"CC[C@H](C)C(=O)O[C@H]1C[C@@H](C)C=C2C=C[C@H](C)[C@H](CC[C@@H]3C[C@@H](O)CC(=O)O3)[C@H]21 [Lovastatin, lovastatin]","increased liver transaminase levels, share of subjects",[5],2%
same,"myopathy with a creatine kinase greater than 10 times normal, share of subjects",[5],0.5%
same,"required discontinuation, share of those treated",[5],9%
same,decrease in levels of LDL,[6],32.4%
same,decrease in levels of VLDL,[6],53%
COC1=C(OC)C(=O)C(C/C=C(\C)CC/C=C(\C)CC/C=C(\C)CC/C=C(\C)CC/C=C(\C)CC/C=C(\C)CC/C=C(\C)CC/C=C(\C)CC/C=C(\C)CCC=C(C)C)=C(C)C1=O [Coenzyme Q10],hydroperoxide levels in the LDL3 subfraction,[7],significant decrease
same,Coenzyme Q10 levels in all three LDL subfractions,[7]; P<0.01,increased
same,decreased dependency on drugs,[8],43%
same,improvements in myocardial function,[8],58%
[Cr] [chromium],blood sugar and cholesterol versus placebo group,[9],lower
